Assay results: patent US4755529A, “Guaiazulene derivatives and their methods of use” (Harbor Branch Oceanographic Institution Inc., priority 1986, dated 1988)
≈ marks a conversion by molar mass, not a printed value.

What was measured:
[1] = tested on: P388 mouse leukemia cells; assay: P388 mouse leukemia cell assay; type: cell-based; conditions: 48 hours
Experimental: P388 mouse leukemia cells are grown in Dulbecco MEM medium with 10% horse serum 4 mM, glutamine, and 20 μg/ml gentamycin (Biologos, Inc.). Cells are incubated in 10% CO2 and subcultured 2 times per week.
1. Add composition to each well of a 24-well plate or tube and allow solvent to evaporate to dryness.
2. Add 2 ml (1.2×10^5) cells to each well or tube and mix.
3. Incubate in 10% CO2 at 37° for 48 hours.
4. Read plates with an inverted microscope, scoring activity from 1+ to 4+ as follows: ND (not detectable), >90%, 1+, 75-90%; 2+, 50-74%; 3+, 25-49%; 4+, <25% of control growth. Alternatively, scoring may be expressed as IC50 which represents the minimum concentration of the composition required to inhibit 50% of the cell growth on the plate. Cell counts are performed on each tube and results are reported as percent of control.

[2] = tested on: mixed lymphocytes (BALB/c+C57BL/6); assay: Mixed lymphocyte reaction (MLR) assay; type: cell-based, murine; conditions: Mus musculus, percent of positive control, 3H-thymidine, immunostimulatory criterion 150% or greater, read-out: Immunomodulatory activity, % Reference; for activity at 5 µg/mL: 5 ug/ml; for activity at 50 µg/mL: 50 ug/ml
Experimental: The assay method was uded to identify immune response modifiers of the compositions of Formulae I-III corresponding to composition 1-3 of the samples.
Aseptically removed spleens from BALB/c and C57BL/6 mice were homogenized, separately, in RPMI 1640 medium with 10% fetal calf serum, 2% L-glutamine,15 mM HEPES, 1% antibiotic-antimycotic solution and 25 μg/ml gentamycin (GIBCO). Lymphocytes were then derived by differential cetrifugation after red blood cell lysing and serial cell washing in complete media. Cells were adjusted to equal concentrations (2.5×10^6 cells/ml) and combined after removal of negative control aliquots. Incubation conditions for the cells were 5% CO2, 95% air at 37° C.
1. Add composition to each well of a 96-well plate and allow solvent to evaporate to dryness, if not aqueous.
2. Add 0.2 ml mixed lymphocytes (BALB/c+C57BL/6) to each well and mix.
3. Incubate in 5% CO2 at 37° C. for 86 hours.
4. Pulse wells with 0.1 ml ^3 H-thymidine (1 uCi/well).
5. Incubate in 5% CO2 at 37° C. for 6 hours.
6. Harvest plates and add 2 ml scintillant to each vial containing a filter disc.
7. Count vials in a liquid scintillation counter (Beckman).
8. Average replicate counts and report data as percent of positive control. The criteria for immunostimulatory effectiveness is a value of 150%, or greater, above control values for mixed lymphocytes in culture.

[3] = tested on: C. albicans; assay: Minimum inhibitory concentration (MIC), anti-Candida assay; type: cell-based; conditions: approximately 1000 cells/mL, 37° C. overnight
Experimental: Candida albicans: C. albicans (Ca) is grown on Sabouraud dextrose agar to produce single colonies one of which is used to inoculate Sabouraud dextrose broth. The broth is incubated at 37° C. with shaking at 200 rpm for 18 hrs., the resultant culture is frozen with 10% (v/v) glycerol at -80° C. and used as the inoculum for the anti-Candida assay. Two-fold dilutions of the drug are prepared in 50 μL volumes of Sabouraud dextrose broth using 96-well microtiter plates. An inoculum of C. albicans is added in a small volume to give a cell density of approximately 1000 cells/mL. Plates are incubated at 37° C. overnight. 10 uL of Triphenyl tetrazolium chloride (1% w/v) is then added to each well; a further 2 hour incubation results in a deep coloration of the microorganism.

IC50 [1]	MIC [3]	SMILES	activity at 5 µg/mL [2]	activity at 50 µg/mL [2]
35 mg/L (≈ 165 µM)	50 mg/L (≈ 236 µM)	Cc1cc2c(cc3c(C)ccc1-3)C(C)CO2 (stereo not drawn) [Composition (1), dihydrolinderazulene]	255%	1%
50 mg/L (≈ 238 µM)	12.5 mg/L (≈ 59.4 µM)	Cc1cc2occ(C)c2cc2c(C)ccc1-2 [Composition (3), linderazulene]	155%	19%
35 mg/L (≈ 176 µM)	25 mg/L (≈ 126 µM)	Cc1ccc(C(C)C)cc2c(C)ccc1-2 [Composition (2), guaiazulene]	284%	351%
